Test results: ChEMBL document CHEMBL4138122, “Azaphenothiazines - promising phenothiazine derivatives. An insight into nomenclature, synthesis, structure elucidation and biological properties” (Eur J Med Chem, 2017)
Values after ≈ are worked out from the molar mass of the structure shown.

Tests used:
[1] = test system: Rattus norvegicus; assay: Analgesic activity in Sprague-Dawley rat assessed as reduction in phenylbenzoquinone-induced number of writhes at 20 mg/kg, sc incubated for 60 mins; format: functional; set-up: scale not given: the % may be the effect or the level left
[2] = Displacement of [3H]-diazepam from benzodiazepine receptor in rat brain membranes after 30 mins; format: cell membranes, Membrane
[3] = test system: MDA-MB-231; assay: Cytotoxicity against human MDA-MB-231 cells; format: functional, cell-based
[4] = test system: C32; assay: Cytotoxicity against human C32 cells; format: functional, cell-based
[5] = test system: SNB-19; assay: Cytotoxicity against human SNB19 cells; format: functional, cell-based
[6] = target: Intercellular adhesion molecule 1 (Homo sapiens, UniProt P05362); assay: Inhibition of ICAM1 (unknown origin)
[7] = test system: T47D; assay: Cytotoxicity against human T47D cells; format: functional, cell-based
[8] = test system: MCF7; assay: Cytotoxicity against human MCF7 cells; format: functional, cell-based
[9] = test system: Liver; assay: Antioxidant activity in rat liver microsomal membranes assessed as inhibition of Fe(2+)/ascorbate-induced lipid peroxidation; format: functional, microsomes, microsome
[10] = test system: Bacillus subtilis; assay: Antibacterial activity against Bacillus subtilis; format: functional
[11] = test system: Staphylococcus aureus; assay: Antibacterial activity against Staphylococcus aureus; format: functional
[12] = test system: Escherichia coli; assay: Antibacterial activity against Escherichia coli; format: functional; conditions: for MIC: Escherichia coli
[13] = test system: PBMC; assay: Cytotoxicity in human PBMCs assessed as reduction in cel viability at 50 ug/ml; format: cell-based
[14] = Inhibition of LTB4 formation in rat polymorphonuclear leukocytes preincubated for 2 mins followed by A-23187 addition after 4 mins; format: functional, cell-based
[15] = test system: Bacillus cereus; assay: Antibacterial activity against Bacillus cereus; format: functional, organism-based

Intercellular adhesion molecule 1, sequence (P05362 whole entry): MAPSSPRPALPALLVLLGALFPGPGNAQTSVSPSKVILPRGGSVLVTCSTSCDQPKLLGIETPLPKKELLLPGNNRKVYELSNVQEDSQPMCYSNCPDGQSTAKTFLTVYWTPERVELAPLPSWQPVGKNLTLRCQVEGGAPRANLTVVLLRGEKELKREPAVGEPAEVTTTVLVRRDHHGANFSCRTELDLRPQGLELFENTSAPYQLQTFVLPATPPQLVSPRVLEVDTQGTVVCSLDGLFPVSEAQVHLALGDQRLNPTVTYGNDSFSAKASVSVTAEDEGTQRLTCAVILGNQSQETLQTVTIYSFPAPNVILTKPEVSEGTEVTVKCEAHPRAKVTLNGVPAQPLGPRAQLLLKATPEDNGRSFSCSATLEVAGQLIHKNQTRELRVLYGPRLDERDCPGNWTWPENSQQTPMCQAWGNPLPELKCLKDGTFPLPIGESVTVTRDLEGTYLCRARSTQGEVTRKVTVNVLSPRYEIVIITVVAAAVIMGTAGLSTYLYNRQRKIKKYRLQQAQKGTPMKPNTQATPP

For `O=C(O)C(=O)O.c1ccc2c(c1)Sc1cnccc1N2CCCN1CCCCC1`, the Activity [1] was 59 - 86%.

In the case of `N#Cc1c2c(c[nH]c1=O)S(=O)(=O)c1c(Cl)cccc1N2`, the IC50 [2] is reported as 310 to 910 nM.

Work on `C[n+]1cc2c(c3ccccc31)Nc1c(O)cc(-c3ccccc3)cc1S2.[Cl-]` yielded an IC50 [3] of 0.5 to 12 µg/mL, an IC50 [4] of 0.5 to 7.5 µg/mL and an IC50 [5] of 0.7 to 11.5 µg/mL.

In the case of `CN(C)CCN1c2ccccc2Sc2cnccc21.O=C(O)C(=O)O`, the Activity [1] is reported as 59 - 86%.

Work on `CCCCOc1ccc2c(c1)Nc1c(c[n+](C)c3ccccc13)S2.[Cl-]` yielded an IC50 [3] of 0.5 to 12 µg/mL, an IC50 [4] of 0.5 to 7.5 µg/mL and an IC50 [5] of 0.7 to 11.5 µg/mL.

In the case of `O=C(O)CC1CCN(Cc2ccc3c(c2)Nc2nccnc2S3)CC1`, the IC50 [6] is reported as 530 nM.

`C[n+]1cc2c(c3ccccc31)Nc1cc(OCCN3CCOCC3)ccc1S2.[Cl-]` gave an IC50 [3] of no more than 3 µg/mL, an IC50 [4] of no more than 3 µg/mL and an IC50 [7] of no more than 3 µg/mL. The IC50 [5] was no more than 3 µg/mL.

`CN1c2ccncc2Sc2ncccc21` showed an IC50 [8] of 28.4 to 32.9 µg/mL (≈ 132 to 153 µM).

Work on `CSc1ccc2c(c1)Sc1cnc3ccccc3c1N2Cc1ccccc1` yielded an IC50 [3] of 7.59 µg/mL (≈ 19.6 µM) and an IC50 [8] of 8.71 µg/mL (≈ 22.5 µM).

With `C(#CCN1c2ccncc2Sc2ccncc21)CN1CCCCC1` the IC50 [4] was 24.8 to 29.2 µg/mL (≈ 73.7 to 86.8 µM).

In the case of `c1cc2c(cn1)Sc1ccncc1N2CCN1CCCC1`, the IC50 [9] is reported as 125000 nM.

`c1ccc2nc3c(cc2c1)Sc1ccc2ccccc2c1N3` gave an IC50 [9] of 2 µg/mL.

`CC(C)(CCC1CCN(Cc2ccc3c(c2)Nc2nccnc2S3)CC1)C(=O)O` showed an IC50 [6] of 420 to 1000 nM.

`N#Cc1c(O)ncc2c1Nc1cc(Cl)ccc1S2` gave an IC50 [2] of 310 to 910 nM.

Compound `O=C(O)CCC1CCN(Cc2ccc3c(c2)Nc2nccnc2S3)CC1` has an IC50 [6] of 470 nM.

Compound `COc1ccc2c(c1)Nc1c(c[n+](C)c3ccccc13)S2.[Cl-]` has an IC50 [3] of 0.5 to 12 µg/mL, an IC50 [4] of 0.5 to 7.5 µg/mL and an IC50 [5] of 0.7 to 11.5 µg/mL.

`c1ccc2c(c1)Nc1nc3ccccc3cc1S2` showed an IC50 [9] of 2 to 3 µg/mL.

In the case of `C[n+]1cc2c(c3ccccc31)Nc1cc(OCCN3CCCCC3)ccc1S2.[Cl-]`, the IC50 [3] is reported as no more than 3 µg/mL, the IC50 [4] is reported as no more than 3 µg/mL and the IC50 [7] is reported as no more than 3 µg/mL. It also gave an IC50 [5] of no more than 3 µg/mL.

With `O=[N+]([O-])c1cnc2c(c1)Sc1cccc(F)c1N2` the “inhibition zone (IZ)” value [10] was 8 - 12 mm, the “inhibition zone (IZ)” value [11] was 8 - 15 mm and the “inhibition zone (IZ)” value [12] was 7 - 12 mm.

In the case of `C/C(=C\CC1CCN(Cc2ccc3c(c2)Nc2nccnc2S3)CC1)C(=O)O`, the IC50 [6] is reported as 420 nM.

Work on `c1ccc2nc3c(cc2c1)Sc1c(ccc2ccccc12)N3` yielded an IC50 [9] of 6 µg/mL.

With `O=c1[nH]c2ccccc2c2c1Sc1ccccc1N2` the MIC [11] was “>=200 ug”.

`CNS(=O)(=O)NC1CCN(Cc2ccc3c(c2)Nc2nccnc2S3)CC1` showed an IC50 [6] of 270 to 1400 nM.

With `CC(CCC1CCN(Cc2ccc3c(c2)Nc2nccnc2S3)CC1)C(=O)O` (stereo unspecified) the IC50 [6] was 420 to 1000 nM.

`C[n+]1cc2c(c3ccccc31)Nc1cccc(O)c1S2.[Cl-]` showed an MIC [12] of 14 µg/mL.

With `O=[N+]([O-])c1cnc2c(c1)Sc1cc(F)ccc1N2` the “inhibition zone (IZ)” value [10] was 12 mm, the “inhibition zone (IZ)” value [11] was 8 - 15 mm and the “inhibition zone (IZ)” value [12] was 7 - 12 mm.

Work on `COc1ccc2c(c1)Sc1cc3ccccc3nc1N2` yielded an IC50 [9] of 2 to 3 µg/mL.

For `C[n+]1cc2c(c3ccccc31)Nc1cc(OCCN3CCCC3)ccc1S2.[Cl-]`, the IC50 [3] was no more than 3 µg/mL, the IC50 [4] was no more than 3 µg/mL and the IC50 [7] was no more than 3 µg/mL. It also gave an IC50 [5] of no more than 3 µg/mL.

In the case of `C(#CCN1c2cnccc2Sc2cccnc21)CN1CCN(c2ccccc2)CC1`, the IC50 [4] is reported as 26.1 to 27.5 µg/mL (≈ 63.1 to 66.5 µM), the IC50 [7] is reported as 45.8 µg/mL (≈ 111 µM) and the IC50 [5] is reported as 33.1 µg/mL (≈ 80 µM). For the same compound, the Activity [13] was “<= 22%”.

For `CN(C)CCCN1c2ccccc2Sc2cnccc21.O=C(O)C(=O)O`, the Activity [1] was 59 - 86%.

For `O=C(O)CC1CC2CCC(C1)N(Cc1ccc3c(c1)Nc1nccnc1S3)C2` (stereo unspecified), the IC50 [6] was 420 to 1000 nM.

`COc1ccc2c(c1)Sc1nccnc1N2` showed an IC50 [14] of 0.05 to 1 µg/mL (≈ 0.216 to 4.32 µM).

For `Cc1ncc2c(n1)N=c1c(c3c(c4ccccc14)=Nc1cc([N+](=O)[O-])ccc1O3)S2`, the MIC [15] was 87.1 µg/mL (≈ 211 µM) and the MIC [12] was 87.1 to 97.1 µg/mL (≈ 211 to 235 µM).

Work on `O=C(O)c1ccc(C2CCN(Cc3ccc4c(c3)Nc3nccnc3S4)CC2)cc1` yielded an IC50 [6] of 420 to 1000 nM.

In the case of `CCN(C)CC#CCN1c2ccncc2Sc2ccncc21`, the IC50 [4] is reported as 24.8 to 29.2 µg/mL (≈ 79.9 to 94.1 µM).

With `N#Cc1c2c(c[nH]c1=O)Sc1ccc([N+](=O)[O-])cc1N2` the IC50 [2] was 310 to 910 nM.

Work on `N#Cc1c(O)ncc2c1Nc1ccccc1S2` yielded an IC50 [2] of 310 to 910 nM.

`CCN(CC)CCCN1c2ccc3ccccc3c2Sc2cc3ccccc3nc21` showed an IC50 [4] of 0.8 µg/mL (≈ 1.93 µM), an IC50 [7] of 5.9 µg/mL (≈ 14.3 µM) and an IC50 [5] of 0.98 µg/mL (≈ 2.37 µM).

In the case of `c1cnc2c(c1)Nc1ccncc1S2`, the IC50 [4] is reported as 0.46 µg/mL (≈ 2.29 µM), the IC50 [8] is reported as 0.72 µg/mL (≈ 3.58 µM) and the IC50 [5] is reported as 0.46 µg/mL (≈ 2.29 µM).

Compound `CC(=O)NC1CCN(Cc2ccc3c(c2)Nc2nccnc2S3)CC1` has an IC50 [6] of 270 to 1400 nM.

Work on `COc1ccc2c(n1)Sc1c3c(c4ccccc4c1=N2)=Nc1cc([N+](=O)[O-])ccc1O3` yielded an MIC [15] of 87.4 µg/mL (≈ 204 µM) and an MIC [12] of 87.1 to 97.1 µg/mL (≈ 203 to 227 µM).

`CN1CCCCC1CCN1c2ccc(F)cc2Sc2cnc3ccccc3c21` (stereo unspecified) gave an IC50 [3] of 5.92 to 6.96 µg/mL (≈ 15 to 17.7 µM) and an IC50 [8] of 5.92 to 6.96 µg/mL (≈ 15 to 17.7 µM).

In the case of `CN1CCC2=C(C1)Sc1ccccc1N2CCCN1CCOCC1`, the Activity [1] is reported as 93%.

Compound `c1cnc2c(n1)Nc1cc(CN3CCCCC3)ccc1S2` has an IC50 [6] of 270 to 1400 nM.

For `CN1c2ccccc2Sc2cnc(O)c(C#N)c21`, the IC50 [2] was 310 to 910 nM.

Compound `c1ccc2nc3c(cc2c1)Sc1c(ccc2ncccc12)N3` has an IC50 [9] of 16000 nM.
